From patent publication US20120115149A1, “SEROTONIN TRANSPORTER GENE AND TREATMENT OF ALCOHOLISM” (University of Virginia Patent Foundation, priority 2009, published 2012)
Where a name gives a salt, the structure may show the parent alone.

Legend:
[1] = alcohol trials, naltrexone 50 mg/day; cited from earlier work
alcoholics = assay: Double-blind placebo-controlled trial of ondansetron in alcoholics randomized by 5'-HTTLPR genotype: self-reported drinking; assay type: in vivo, human
Excerpt: We randomized 283 alcoholics by genotype in the 5′-regulatory region of the 5-HTT gene (LL/LS/SS) in a controlled double-blind trial. […] We genotyped another functional single nucleotide polymorphism (T/G), rs1042173, in the 3′-untranslated region.
Participants. Details of the subject population were similar to those in a previously published study (22). Briefly, our 283 enrollees (73.7% male; 84.4% White, and 15.6% Hispanic) had alcohol dependence but no axis I diagnosis other than nicotine dependence according to the Diagnostic and Statistical Manual of Mental Disorders, 4th edition (23); were aged 20 to 78 years, and scored >8 on the Alcohol Use Disorders Identification Test (24), which assessed the severity of alcohol-related problems.
All subjects provided informed consent to participate.
Subjects were randomized using an urn (25) procedure after the screening visit to either treatment or placebo under each of three different genotypes (LL, LS, or SS alleles of the 5′-HTTLPR) strata. Further characterization of the cohort for rs1042173 of 3′-UTR alleles (i.e., TT/TG/GG) was done post-randomization.
Study procedures. Subjects were enrolled in the study whilst they were still drinking (i.e., without a period of abstinence). At enrollment, we collected self-reported drinking based on the timeline follow-back method over the past 90 days (26), genotyped, and collected white blood cells (WBCs) for expression studies.
From weeks 1 to 12, subjects received weekly assessment of drinking using the timeline follow-back method, adverse events using the Systematic Assessment for Treatment Emergent Events (28), alcohol withdrawal using the revised Clinical Institute Withdrawal Assessment for Alcohol scale (17), concomitant medication use, and pill count.
All subjects received weekly standardized, manual-driven (29, 30) cognitive behavioral therapy in groups of up to eight subjects as their psychosocial treatment. This comprised an integration of cognitive behavioral and social learning theory that enables alcoholic subjects to achieve and maintain abstinence by enhancing their ability to manage high-risk situations, which can trigger alcohol-seeking behavior (31, 32).
Genetics testing. DNA was extracted from the blood of each subject at baseline with a Gentra Puregene® kit (QIAGEN Inc., Valencia, Calif.). The 5′-HTTLPR L/S alleles were determined as described earlier (2, 33) with custom-made primers. The alleles of SNP rs1042173 were genotyped with pre-made TaqMan® genotyping assays (Applied Biosystems, Foster City, Calif.) as reported previously (10).

[2] = cited from earlier work; for effect on binge eating, in words: human, in vivo
[3] = cited from earlier work
[4] = LL genotype, ondansetron (4 μg/kg twice daily, 11 weeks) vs. placebo, averaged across treatment
[5] = ondansetron LL vs. all other genotype and treatment groups combined
[6] = ondansetron LL/TT vs. all other genotype and treatment groups combined
[7] = within ondansetron recipients, LL vs. LS/SS

Compound: O=C1CC[C@@]2(O)[C@H]3Cc4ccc(O)c5c4[C@@]2(CCN3CC2CC2)[C@H]1O5 [naltrexone, 17-(Cyclopropylmethyl)-4,5a-epoxy-3,14-dihydroxymorphinan-6-one hydrochloride]
- individuals unable to tolerate the dose [1]: about 15%

Compound: Cc1nccn1CC1CCc2c(c3ccccc3n2C)C1=O (stereo not drawn) [ondansetron, 9-methyl-3-[(2-methyl-1H-imidazol-1-yl)methyl]-1,2,3,9-tetrahydrocarbazol-4-one]
- drinks/drinking day (DDD), difference (alcoholics; [4]): −1.62
- percentage of days abstinent (PDA), difference (alcoholics; [4]): 11.27%
- response by age of onset, in words (alcoholics; LL or LL/TT genotype): responded to ondansetron irrespective of age of onset
- effect on drinks/drinking day, in words (alcoholics; LL subjects, TT subjects): reduces drinks/drinking day
- response to treatment by rs1042173 genotype, in words (alcoholics; alcohol-dependent subjects, TT vs. TG/GG genotype): respond better
- reduction in severity of drinking by 5'-HTTLPR genotype, in words (alcoholics; alcoholics with LL genotype vs. LS/SS): significantly greater reduction in the severity of drinking
- drinks/drinking day (DDD), difference (alcoholics; [5]): −1.45
- percentage of days abstinent (PDA), difference (alcoholics; [5]): 9.65%
- drinks/drinking day (DDD), difference (alcoholics; [6]): −2.63
- percentage of days abstinent (PDA), difference (alcoholics; [6]): 16.99%
- drinks/drinking day (DDD), difference (alcoholics; [7]): −1.53
- percentage of days abstinent (PDA), difference (alcoholics; [7]): 9.73%
- effect on binge eating, in words [2]: reduce binge eating

Compound: O=C1NC(=O)C(c2ccccc2)(c2ccccc2)N1 [phenyloin]
- effect on binge eating, in words [2]: reduced binge eating

Compound: CC1(C)O[C@@H]2[C@@H](CO[C@@]3(COS(N)(=O)=O)OC(C)(C)O[C@@H]23)O1 [topiramate, 2,3:4,5-Bis-O-(1-methylethylidene)-beta-D-fructopyranose sulfamate]
- cognitive impairment, individuals reporting ([3]; general population): 2.4%
- occurrence rate of cognitive impairment ([3]; substance abuse field): about 18.7%
- effect on appetite and weight, in words ([2]; controlled trials in patients with epilepsy): suppression of appetite and weight loss
